Experimental data taken from patent US20070129281A1, “Pharmaceutical compounds” (priority 2003, published 2007).
Entries after “also recorded” stand apart in the source; their conditions may differ.

Target: T1, PTP1B catalytic domain (residues 1-321) (Homo sapiens, UniProt P18031)
T1 construct: crystallisation of the catalytic domain of PTP1B (residues 1-321) were based on literature conditions; made in house; host or cells: E. coli BL21(DE3), vector pET19b
T1 sequence (P18031 1-321): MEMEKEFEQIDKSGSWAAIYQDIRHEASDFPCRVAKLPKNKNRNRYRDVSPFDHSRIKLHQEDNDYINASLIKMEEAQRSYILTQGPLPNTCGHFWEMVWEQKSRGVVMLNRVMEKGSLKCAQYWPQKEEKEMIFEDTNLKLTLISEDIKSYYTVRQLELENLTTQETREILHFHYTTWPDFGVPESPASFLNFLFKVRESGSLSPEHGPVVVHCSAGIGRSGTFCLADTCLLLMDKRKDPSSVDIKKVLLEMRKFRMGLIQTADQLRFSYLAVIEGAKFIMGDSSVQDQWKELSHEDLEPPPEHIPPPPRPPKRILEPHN
Assay: Crystal soaking of PTP1B crystals with X-ray structure determination (oxidation state of Cys215)
Settings: for State of the catalytic Cys215 / active site of PTP1B in the crystal after soaking (X-ray data): crystals soaked about 24 hours in mother liquor without DTT containing 100 mM compound
Method: For overnight soaking experiments crystals were transferred into a standard mother liquor containing 16% PEG 4000, 0.1 M HEPES (pH 7.5), 0.2 M magnesium acetate, 10 mM DTT and the compound of interest (See Table 3 below).
All data were collected at 100 K. Data sets of sulfenic- sulfinic- and sulfonic acid PTP1B derivatives were automatically collected on a Jupiter140 CCD detector mounted on a RU3HR rotating anode generator equipped with an ACTOR sample-changing robot (RigakuMSC, The Woodlands Tex., USA). They were processed and scaled using D*TREK^21 and converted to structure factors using programs from the CCP4 suite^22.
Oxidation of Cys215 to the sulfenyl-amide derivative was carried out by soaking crystals for approximately 24 hours in mother liquor without DTT, but containing 100 mM 2-phenyl-isoxazolidine-3,5-dione. Data were collected at station 14.1 (SRS, Daresbury) and processed and scaled using MOSFLM/SCALA^22.
Reversibility of the sulfenyl-amide derivative was checked by first soaking two crystals in 100 mM 2-phenyl-isoxazolidine-3,5-dione for 24 hours.
All results were evaluated using the graphics programs QUANTA (Accelrys, San Diego Calif., USA) and Astexviewer™^23. Initial refinement was always carried out using the CCP4-based Astex automatic refinement scripts, followed by rounds of positional and B-factor refinement with REFMAC5^22 alternated with manual rebuilding steps using QUANTA.

Row | State of the catalytic Cys215 / active site of PTP1B in the crystal after soaking (X-ray data) | Compound | Active site conformation of sulfenyl-amide PTP1B crystal after back soaking (reversibility, X-ray data) (back soaking 24 hours in mother liquor containing 20 mM reduced glutathione, after a 100 mM 2-phenyl-isoxazolidine-3,5-dione soak) | State of the catalytic Cys215 / active site of PTP1B in the crystal after soaking (X-ray data) (listed as 2-Phenyl-isoxazolidine-3,5-dione)
1 | – | N[C@@H](CCC(=O)N[C@@H](CS)C(=O)NCC(=O)O)C(=O)O [reduced glutathione, glutathione] | entire active site back in its native conformation; also recorded: confirmed the active site in its native conformation | –
2 | Sulfenyl-amide formation was confirmed | O=C1CC(=O)N(c2ccccc2)O1 [2-phenyl-isoxazolidine-3,5-dione] | – | confirmed the formation of the sulfenyl-amide bond
